The test system of data set [1] is C6 glioma cells. Briefly: MTT cell viability of BCH and of THC-di-Phe with or without LAT1 inhibitor BCH. Type of data set: cell-based. Conditions: 24 h. As to the method:
To investigate the role of THC-conjugated amino acid conjugates on LAT1, THC-amino acid conjugates were co-incubated with an inhibitor of LAT1 (BCH). The cells were seeded overnight at 2 × 10^4 cells/well in 96-well plates. Initially, the cells were treated with different concentrations of BCH (5, 10, and 20 mM) for 24 h, followed by the MTT assay to identify the maximum non-toxic concentration of BCH. Then, the cells were treated with THC-di-Phe at 12.5, 25, and 50 μM concentrations with or without 5 mM BCH for 24 h. The cell viability was measured by MTT assay.

Data set [2] has as its system C6 glioma cells. Also noted: method as in PMID 18520037. Conditions: cited from earlier work.
For the next data set, the system named is LAT1. Also noted: method as in PMID 18520037. The settings on record: BCH 3 mM, C6 glioma cells; cited from earlier work.
The next data set deals with P70S6K/S6 pathway. Briefly: Western blot of P70S6K and S6 phosphorylation. Conditions: 10 µM, C6 cells, 8, 16 and 24 h post-treatment. Type of data set: cell-based. Here is the method:
C6 cells were seeded in a 6-well plate with a density of 1 × 10^6 cells for 24 h. The cells were treated with THC and THC-di-Phe for 8, 16, and 24 h. The cells were washed in ice-cold phosphate-buffered saline (PBS) and lysed with ice-cold lysis buffer containing protease and phosphatase inhibitors. The cells in the lysis buffer were centrifuged at 14,000 rpm at 4 °C for 10 min. The protein concentration in the supernatant was quantified using Pierce™ BCA protein assay. After the quantification, equal amounts of protein were resolved by SDS–PAGE and transferred into a nitrocellulose membrane. The membranes were then blocked with 5% dry milk and probed with primary antibody including p70S6K, p-p70S6K, S6, p-S6 (Cell Signaling Technology (Beverly, MA, USA), followed by adding the species-specific horseradish […] conjugated secondary antibody (Cell Signaling Technology (Beverly, MA, USA). The membrane was incubated with a chemiluminescent detection kit solution, followed by X-ray film imaging to visualize protein levels. The level of phosphorylation of each protein was normalized to its normal form.
A general note: In western blotting, separated proteins are transferred to a membrane and probed.

Data set [3] relates to C6 glioma cells. In words: Cell scratch (wound closure, migration) assay. Type of data set: cell-based. The settings on record: 10 µM, % of wound closure compared to 0 h; for wound closure at 24 h: control 71.4%; for wound closure at 48 h: control 100%. As to the method:
Properties of cell migration were assayed using a cell scratch assay. Briefly, the cells were seeded in 24-well plates at a concentration of 100,000 cells/well, followed by treatment of the cells using 10 µM THC and 10 µM THC-di-Phe. The cell layers were then scrapped with a 200 µL pipette tip to form a wound. The ability of the cells to close the wound was observed under an inverted microscope (Nikon TS2, Tokyo, Japan) at 0, 24, and 48 h post-treatment. Wound closure was further analyzed using ImageJ software (version 1.53e, Wayne Rasband and contributors, National Institutes of Health, USA).

The subject of data set [4] is C6 glioma cells. Briefly: Annexin V/PI double staining by flow cytometry. Type of data set: cell-based. Conditions: 20 μM, 24 h, mean ± S.D., n = 3. Here is the method:
Annexin V/PI staining by flow cytometry was performed to indicate the stage of cell fate, including necrosis, early and late apoptosis, and viable cells. Briefly, the cells were treated with the THC and THC-di-Phe at 20 µM. After 24 h, the cells were harvested and further analyzed by flow cytometry. Annexin V/PI staining by flow cytometry was performed according to the manufacturer’s instructions (BioLegend, San Diego, CA, USA).
Background: Flow cytometry measures light scatter and fluorescence of single cells or particles in a stream.

In a further data set the test system is C6 cells. Briefly: Cell proliferation assay (MTT). Type of data set: cell-based. The settings on record: 10 µM, 24 h and 48 h post-treatment. As to the method:
The effects of THC-di-Phe on cell cancer proliferation were assessed using a cell proliferation assay. Briefly, C6 cells were seeded in a 96-well plate at a concentration of 5000 cells/well and then incubated overnight. Cells were then incubated with 10 µM THC and THC-di-Phe for 24 and 48 h. The morphology of the cells was observed under a light microscope. Then, the cells were incubated with MTT solution (0.5 mg/mL), and the formed formazan crystals were dissolved in DMSO. The absorbance was measured using a microplate reader (CLARIOstar®, BMG Labtech, Ortenberg, Germany) at the wavelength of 570 nm.

The subject of data set [5] is C6 glioma cells. In words: MTT cytotoxicity in C6 glioma cells. Type of data set: cell-based. Here is the method:
(§1) C6 glioma cells and BJ fibroblast cells (ATCC, Manassas, VA, USA) were used as models for brain cancer and normal cells, respectively. The cells were cultured in DMEM media (Sigma–Aldrich, St. Louis, MO, USA) supplemented with 10% fetal bovine serum (Merck Millipore, Burlington, MA, USA) and 1% penicillin-streptomycin (Caisson Labs, Smithfield, UT, USA). The cells were maintained in an incubator with 5% CO2 at 37 °C and 95% humidity.
(§2) Cell viability was assessed using the 3-(4,5-dimethylthiazol-2-yl)-2,5-diphenyltetrazolium bromide (MTT) assay (Sigma–Aldrich, St. Louis, MO, USA). Cells were seeded in 96-well plates at a density of 2 × 10^4 cells/well and incubated for 24 h. The cells were then treated with various concentrations of THC and equimolar concentrations of THC-amino acid conjugates (0, 31.25, 62.5, 125, 250, and 500 μM) for 24 and 48 h in cancer cells, and for 24 h in normal cells. After treatment, the media were removed and replaced with MTT solution (0.5 mg/mL), followed by incubation for 3 h. The resulting formazan crystals were dissolved in DMSO (Sigma–Aldrich, St. Louis, MO, USA). Absorbance was measured using a microplate reader at a wavelength of 570 nm (CLARIOstar®, BMG Labtech, Ortenberg, Germany).

The test system of another data set is BJ fibroblast cells. In words: MTT cytotoxicity in normal BJ fibroblast cells. Type of data set: cell-based. The settings on record: 24 h treatment. Here is the method:
as §1, §2

Data set [6] deals with C6 glioma cells. Briefly: MTT cytotoxicity in C6 glioma cells. Type of data set: cell-based. Conditions: tested at 5 to 40 µM, Supplementary Figure S29.
For data set [7], the system named is C6 glioma cells. In words: Hoechst 33342/PI double staining assay (apoptosis and necrosis). Type of data set: cell-based. The settings on record: 20 and 40 µM and higher concentrations. As to the method:
Apoptosis and necrosis were assessed using the Hoechst 33342/PI double staining assay (Sigma–Aldrich, St. Louis, MO, USA). After treatment, the cells were viewed using a fluorescence microscope (Olympus IX51 inverted microscope, Tokyo, Japan). Hoechst 33342 dye stains cells with blue color, either dead or alive. Apoptotic cells are indicated by condensed and fragmented chromatin. Propidium iodide (PI) stains cells in red, which can only stain damaged cells and is used as an indicator of cellular necrosis.

[8] abbreviates: 24 h treatment, read-out: IC50 at 24 h, C6 cells.
[9] abbreviates: 48 h treatment, read-out: IC50 at 48 h, C6 cells.

Read-outs that look alike come from different tables or passages of the source.

The values that follow come from publication PMC11509005, “Synthesis, Cytotoxicity, and Mechanistic Evaluation of Tetrahydrocurcumin-Amino Acid Conjugates as LAT1-Targeting Anticancer Agents in C6 Glioma Cells” (International Journal of Molecular Sciences, 2024).

Turning to `NC1(C(=O)O)CC2CCC1C2` (centres unmarked) [BCH, 2-Aminobicyclo-(2,2,1)-heptane-2-carboxylic acid], the maximum non-toxic concentration with C6 glioma cells [1] (C6 glioma cells, MTT) is given as 5 mM. Moreover, the “cytotoxicity at 3 mM” value in the data set with C6 glioma cells [2] (BCH 3 mM, 24 h incubation) is “no significant cytotoxicity”. In addition, the “cytotoxicity at 10 mM” value in the data set with C6 glioma cells [2] (BCH 10 mM) is recorded as “significant toxicity”. Moreover, the “inhibition of LAT1 activity” value in the data set on LAT1 is “completely inhibit”.

Usually IC50 stands for the point on the concentration scale where inhibition reaches its midpoint. `COc1cc(CCC(=O)CC(=O)CCc2ccc(O)c(OC)c2)ccc1O` [THC, Tetrahydrocurcumin]: the “phosphorylation of P70S6K and S6 compared to control” value in the data set on P70S6K/S6 pathway is on record as “did not significantly modulate”. Further, in the data set on C6 glioma cells [3], the “wound closure at 24 h” value was found to be 46.3% and the “wound closure at 48 h” value came out at 81.4%. In addition, in the data set with C6 glioma cells [4], the necrotic cell death worked out at 2.73 ± 0.15% and the “percentage of late apoptotic cells” value was determined as 2.33 ± 0.32%. For the same compound, the “proliferation ability of C6 cells compared to the control” value in the data set on C6 cells is reported as “significant reduction of cell proliferation by THC was only observed 48 h post-treatment”. The IC50 in the data set on C6 glioma cells [5] (setting [8]) is 111 µM. Also, in the data set on C6 glioma cells [5] (setting [9]), the IC50 came out at 52.9 µM. Also, half-maximal inhibition in the data set on BJ fibroblast cells (Homo sapiens) (IC50) was put at 184 ± 31.8 µM.

Consider “(Z)-2,2′-(((((3-Hydroxy-5-oxohept-3-ene-1,7-diyl)bis(2-methoxy-4,1 phenylene))bis(oxy))bis (carbonyl))bis(azanediyl))diacetic acid [THC-di-Gly]”, for which the IC50 with C6 glioma cells [5] (setting [8]), with C6 glioma cells [5] (setting [9]) and in the data set with BJ fibroblast cells was greater than 500 µM each time.

With “(Z)-2,2′-(((((3-Hydroxy-5-oxohept-3-ene-1,7-diyl)bis(2-methoxy-4,1-phenylene))bis(oxy))bis (carbonyl))bis(azanediyl))bis(3-methylpentanoic acid) [THC-di-Ile]”, the half-inhibitory concentration (IC50) with C6 glioma cells [5] (setting [8]), in the data set with C6 glioma cells [5] (setting [9]) and in the data set with BJ fibroblast cells was greater than 500 µM each time.

As for “(Z)-2,2′-(((((3-Hydroxy-5-oxohept-3-ene-1,7-diyl)bis(2-methoxy-4,1-phenylene))bis(oxy))bis (carbonyl))bis(azanediyl))bis(3-phenylpropanoic acid) [THC-di-Phe]”, the “phosphorylation of P70S6K and S6 compared to control” value in the data set on P70S6K/S6 pathway is recorded as “significantly inhibited”. For the same compound, the “concentrations toxic to C6 glioma cells” value with C6 glioma cells [6] was “above 10 µM”. For the same compound, in the data set on C6 glioma cells [7], the “induction of cellular apoptosis (Hoechst 33342/PI)” value was “observed”. Also, in the data set on C6 glioma cells [3], the “wound closure at 24 h” value was determined as 32.8% and the “wound closure at 48 h” value was 65.2%. Also, in the data set on C6 glioma cells [4], the necrotic cell death is 5.01 ± 0.64% and the “percentage of late apoptotic cells” value is 6.07 ± 1.13%. The “proliferation ability of C6 cells compared to the control” value in the data set on C6 cells is given as “significantly inhibited”. The “cell death on co-incubation with BCH vs THC-di-Phe alone, lower concentrations” value with C6 glioma cells [1] (THC-di-Phe 12.5 and 25 μM, 5 mM BCH) is “significantly increased cell death”. Besides, in the data set with C6 glioma cells [1] (THC-di-Phe 50 and 100 μM, 5 mM BCH), the “cell death with or without BCH, higher concentrations” value is reported as “comparable cellular death”. Besides, the IC50 in the data set with C6 glioma cells [5] (setting [8]) came out at 35.8 µM. In the data set with C6 glioma cells [5] (setting [9]), the IC50 amounted to 26.8 µM. In addition, in the data set with BJ fibroblast cells, the IC50 stood at 470 ± 20.4 µM.

Regarding “(Z)-2,2′-(((((3-Hydroxy-5-oxohept-3-ene-1,7-diyl)bis(2-methoxy-4,1-phenylene))bis(oxy))bis (carbonyl))bis(azanediyl))bis(4-methylpentanoic acid) [THC-di-Leu]”, the IC50 is 350 ± 52.6 µM in the data set on C6 glioma cells [5] (setting [8]), 350 ± 129 µM in the data set with C6 glioma cells [5] (setting [9]) and greater than 500 µM with BJ fibroblast cells.
